The test has as its target T1, Nucleotide-binding oligomerization domain-containing protein 1 (Homo sapiens, UniProt Q9Y239).
T1 sequence (Q9Y239 whole entry): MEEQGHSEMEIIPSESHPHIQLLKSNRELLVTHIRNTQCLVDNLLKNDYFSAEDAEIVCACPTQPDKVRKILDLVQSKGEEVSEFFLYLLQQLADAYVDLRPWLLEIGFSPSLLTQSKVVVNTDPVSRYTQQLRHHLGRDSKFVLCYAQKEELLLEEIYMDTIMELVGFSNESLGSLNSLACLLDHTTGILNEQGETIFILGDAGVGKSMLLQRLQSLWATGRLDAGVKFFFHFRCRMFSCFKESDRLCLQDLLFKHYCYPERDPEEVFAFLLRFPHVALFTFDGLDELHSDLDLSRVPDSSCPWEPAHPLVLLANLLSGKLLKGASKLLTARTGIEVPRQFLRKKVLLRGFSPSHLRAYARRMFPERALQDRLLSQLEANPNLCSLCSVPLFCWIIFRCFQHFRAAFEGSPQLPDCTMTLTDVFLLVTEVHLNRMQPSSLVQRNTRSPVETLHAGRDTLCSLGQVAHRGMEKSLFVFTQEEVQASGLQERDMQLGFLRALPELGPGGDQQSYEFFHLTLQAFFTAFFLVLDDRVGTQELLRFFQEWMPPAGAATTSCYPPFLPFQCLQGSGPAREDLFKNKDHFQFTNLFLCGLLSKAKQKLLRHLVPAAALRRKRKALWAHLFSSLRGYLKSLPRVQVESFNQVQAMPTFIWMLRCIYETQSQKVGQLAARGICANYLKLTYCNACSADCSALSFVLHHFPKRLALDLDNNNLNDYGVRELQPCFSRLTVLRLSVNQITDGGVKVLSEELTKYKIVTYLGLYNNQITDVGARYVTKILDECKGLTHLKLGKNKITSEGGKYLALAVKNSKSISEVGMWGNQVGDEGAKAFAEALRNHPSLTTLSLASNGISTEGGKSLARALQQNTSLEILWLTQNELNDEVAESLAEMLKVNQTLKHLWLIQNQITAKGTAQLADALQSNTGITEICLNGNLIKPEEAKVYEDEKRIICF
The experiment in a line: blockers of NOD1 pathway activity – revised, SAR follow-up (AID 2333).
As for `Cc1cc(Br)ccc1SCC(=O)OCC(=O)C(C#N)c1nc2ccccc2[nH]1` (stereo not drawn) [2-[(4-bromo-2-methylphenyl)thio]acetic acid [3-cyano-3-(1,3-dihydrobenzimidazol-2-ylidene)-2-oxopropyl] ester], the IC50 (as a rule, the midpoint of a concentration-inhibition curve) was greater than 20 µM.

The compound `N#CC(C(=O)COC(=O)CSc1ccc2ccccc2c1)c1nc2ccccc2[nH]1` (stereo not drawn) [[3-cyano-3-(1,3-dihydrobenzimidazol-2-ylidene)-2-oxopropyl] 2-naphthalen-2-ylsulfanylacetate] gave an IC50 greater than 20 µM.

Turning to `N#CC(C(=O)COC(=O)CSc1ccc(Cl)cc1)c1nc2ccccc2[nH]1` (stereo not drawn) [MLS-0208254.0001], the half-inhibitory concentration (IC50) is greater than 20 µM.

Turning to `Cc1cc(SCC(=O)OCC(=O)C(C#N)c2nc3ccccc3[nH]2)c(C)cc1Br` (stereo not drawn), the IC50 is greater than 20 µM.

Consider `CCOC1=CC=CC(C=NNC(=S)Nc2ccccc2[N+](=O)[O-])C1=O` (stereo not drawn) [MLS-0270696.0001], for which the half-inhibitory concentration (IC50) stood at 8.23 µM. In other words, the single-digit micromolar range.

As for `Cc1ccc(O)c(/N=C/C2=CC(Cc3ccccc3)C=C([N+](=O)[O-])C2=O)c1` (stereo not drawn) [(6E)-6-[[(5-methyl-2-oxidanyl-phenyl)amino]methylidene]-2-nitro-4-(phenylmethyl)cyclohexa-2,4-dien-1-one], the IC50 was greater than 20 µM.

Compound `CCCOC1=CC(=O)C(C=NNC(=S)Nc2ccccc2[N+](=O)[O-])C=C1` (stereo not drawn) [1-(2-nitrophenyl)-3-[[(E)-(6-oxo-4-propoxy-1-cyclohexa-2,4-dienylidene)methyl]amino]thiourea] returned an IC50 of 7.73 µM. In other words, the single-digit micromolar range.

In turn, `Cc1ccc(C)c(SCC(=O)OCC(=O)C(C#N)c2nc3ccccc3[nH]2)c1` (stereo not drawn) [MLS000392255] displayed a concentration for half-maximal inhibition (IC50) greater than 20 µM.
